Here are results for 1 compound from US11771692B2, “N-hydroxyethyl didehydroazapodophyllotoxins as GBP1 inhibitors and methods of overcoming treatment resistance in cancer” (The Board of Trustees of the Leland Stanford Junior …, priority 2018, dated 2023).

The structures appear in SMILES notation. “Also recorded” adds a separate entry of the source.

The subject of series [1] is SKOV3. The series is described as follows: MTT cytotoxicity assay, SKOV3. It counts as cell-based. The settings on record: Homo sapiens, SK-OV-3; SKOV3 ovarian cancer cell line. The source says: (§1) FIG. 3, panels A-E. FIG. 3, panel A illustrates the effects of SU093 on survival of human normal HEK293 cell line and ovarian cancer cell lines OVCAR8 & SKOV3 cells via MTT assay. FIG. 3, panel B illustrates the effect of SU093 on GBP1 and PIM1 expression in OVCAR8 cells. […] FIG. 3, panel D illustrates quantification of overexpression and knockdown of GBP1 gene in stably transfected OVCAR8 cells. FIG. 3, panel E illustrates cytotoxicity of SU093 as evaluated in GBP1-OV, GBP1-WT and GBP1-KD OVCAR8 via MTT assay.
(§2) Furthermore, OVCAR8 cells with overexpressed (OV) and knockdown (KD) of GBP1 gene were created (FIG. 3, panel D) and cell viability experiments were performed on GBP1-WT (wild-type), GBP1-OV and GBP1-KD OVCAR8 cells at different doses of SU093.
(Formazan colour is commonly taken as a measure of viable cells.)

Series [2] deals with OVCAR8 cells. The series is described as follows: Cell cycle analysis and cell cycle/cell death regulators in OVCAR8 cells. It counts as cell-based.
Excerpt: FIG. 4, panel A illustrates a histogram of cell cycle distribution of propidium iodide (PI)-stained cells. […] FIG. 4, panel C illustrates the effect of SU093 on cell cycle and cell death regulators analyzed by immunostaining. FIG. 4, panel D illustrates mitochondria stained with MitoTracker Red CMXRos and visualized by confocal microscopy indicating mitochondrial dysfunction in OVCAR8 cells. FIG. 4, panel E illustrates the effect of SU093 on active mitochondrial mass in OVCAR8 cells.
as §2
It has been previously established that GBP1 expression has a definitive role in the resistance towards radiation therapy and taxane-based chemotherapy. The GBP1 inhibitor SU093 was tested in combination with radiation and paclitaxel (a well known taxane-based chemotherapeutic drug) for its potential in overcoming radiation therapy and taxane resistance. […] A cell cycle analysis experiment for radiation was performed with SU093 and combination treatment (FIG. 5, panel B). […] One of the mechanisms through which a drug can sensitize the effect of radiation is its ability to block G2/M phase of the cell cycle (Leonard, C. E.; Chan, D. C.; Chou, T. C.; Kumar, R.; Bunn, P. A., Paclitaxel enhances in vitro radiosensitivity of squamous carcinoma cell lines of the head and neck. Cancer Research 1996, 56 (22), 5198-5204). […]

For series [3], the system named is OVCAR8. The series is described as follows: MTT cytotoxicity assay, OVCAR8. In kind it is cell-based. The settings on record: Homo sapiens, OVCAR-8, Ovarian. The protocol:
(§3) It was observed that SU093 was highly cytotoxic for all cell lines tested with IC50 values in the nanomolar range.
as §2

Series [4] has as its system SCC-90 cells. The series is described as follows: MTT cell viability in SCC-90 cells with GBP1 overexpression and knockdown. It counts as cell-based. The note with it: SCC-90, SU093 0.5-1000 nM, 48 h. The source says:
(§4) The potential for GBP1 inhibition and radiosensitzation in head and neck cancer cells was also investigated.

Series [5] has as its system DU145. The series is described as follows: MTT cytotoxicity assay, DU145. In kind it is cell-based. The note with it: Homo sapiens, DU-145, Prostate.
Excerpt: as §3

The subject of series [6] is OVCAR8 cells. The series is described as follows: Colony formation (clonogenic) assay in OVCAR8 cells. It counts as cell-based.
Series [7] can be described thus: In vivo pharmacokinetics, plasma concentration by LCMS. The settings on record: C57BL/6, mouse, C57BL6 female mice, single 10 mg/kg IP. As to the method:
FIG. 7, panel A illustrates in vivo PK studies, C57BL/6 mice. Drug concentration in plasma was quantified at different time points using LCMS after a single IP injection of SU093. FIG. 7, panel B illustrates the drug concentration in harvested ovaries and liver of C57BL/6 mice after 14 days of administration with SU093 (100 mg/kg) by daily IP injection.
To investigate the pharmacokinetics and toxicity of the subject GBP1 inhibitors, in vivo pharmacokinetic studies with SU093 were conducted and the drug concentration in mice plasma at different time points after injection was determined (e.g. after 5, 10, 30, 60, 120, 360 minutes after injection). Non-tumor-bearing C57BL6 female mice (n=3/group of each time point) were used for these studies and the drug was administered in a single dose of 10 mg/kg intrepertoneally (IP) at different time points. After each time point 150 microliters of blood was withdraw from retro orbital sinus from the respective group of anesthetized (isoflurane) mice. Plasma was separated from each blood sample and mixed with an equal volume of acetonitrile (w/v). Precipitated protein was separated by centrifugation at 12,000 RPM for 10 min at 4° C. Clear supernatant was analyzed for quantification of SU093 using liquid chromatography mass spectroscopy (LCMS).

Series [8] deals with SSC-90. The series is described as follows: MTT cytotoxicity assay, SSC-90. In kind it is cell-based. The note with it: Head and Neck, SSC-90, MTT assay.
Excerpt: as §3

Series [9] relates to GBP1. The series is described as follows: Immunoblotting and cycloheximide chase of GBP1 protein in SCC-90 HNC cells. In kind it is cell-based.
Excerpt: as §4
(A western blot detects proteins with antibodies after separation by electrophoresis.)

In series [10] the test system is MCF7. The series is described as follows: MTT cytotoxicity assay, MCF7. In kind it is cell-based. The note with it: Homo sapiens, Breast.
Excerpt: as §3

Series [11] has as its system GBP1-OV and GBP1-KD OVCAR8 cells. The series is described as follows: MTT cell viability in GBP1-WT, GBP1-OV and GBP1-KD OVCAR8 cells. In kind it is cell-based.
Excerpt: as §1, §2

For series [12], the system named is GBP1. The series is described as follows: Confocal microscopy immunostaining of GBP1 and β-tubulin in OVCAR8 cells. In kind it is cell-based. The note with it: OVCAR8, 1 nM SU093 for 6 h.

`COc1ccc2c(c1)N(CCO)C1=C(C(=O)OC1)C2c1ccccc1` (stereo not drawn) [SU093]: the IC50 (as a rule, the concentration that inhibits the measured activity by half) in [1] amounted to 2.68 nM; in [3], 2.49 nM; in series [5], 1.12 nM; in series [8] it was 3.23 nM; in [10], 6.23 nM. The cell cycle distribution entry in [2] (OVCAR8, SU093 alone) was “G1 phase arrest; also recorded: progression from G1 to S phase was markedly inhibited”. Also, the “cell cycle distribution, combination of SU093 and radiation” value in series [2] (OVCAR8, combination with radiation) is “G2/M phase arrest leading to apoptosis; also recorded: G2/M phase arrest leading to apoptotic cell death”. Also, the “cell cycle and cell death regulators” value in [2] (OVCAR8, cyclin D1, CDK2, Bax) is “reduction in cyclin D1 and CDK2 levels and elevation of the cell death regulator Bax”. Further, the “cytotoxic effect in GBP1 OV and KD cells” value in series [4] is reported as “GBP1 dependent cytotoxic effect”. In series [6], the “colony formation / clonogenic potential” value is listed as “dose-dependent inhibition of clonogenic potential; also recorded: dose-dependent inhibition of colony formation”. The concentration in series [7] peaked (Cmax) at 1600 ng/mL. Further, the Tmax – broadly, the time at which the peak concentration occurs – in series [7] is 5 min. Further, in [7], the half-life – broadly, how long it takes for the measured level to halve – was determined as 60 min. The “GBP1 protein degradation, cyclohexamide chase” value in series [9] (SCC-90) was “degradation of GBP1 protein and reduction of its half-life”. Besides, the GBP1 protein expression entry in series [9] (SCC-90, western blot, 24 h) was “inhibition in GBP1 expression; also recorded: inhibited GBP1 protein expression”. The entries for the “cytotoxicity compared to GBP1-WT” value in [11] (GBP1-KD OVCAR8 cells) and in series [11] (GBP1-OV OVCAR8 cells) were “enhanced cytotoxicity” and “reduced cytotoxicity”, respectively. Also, the “GBP1 nuclear translocation and tubulin expression” value in series [12] is “inhibits the nuclear translocation of GBP1 protein and reduces the tubulin expression; also recorded: blocking its nuclear translocation and reducing tubulin expression”.
